Test results as given in patent US20230265068A1, “TRANSIENT RECEPTOR POTENTIAL CANONICAL 3 INHIBITORS AND METHODS OF USE THEREOF” (University of Tennessee Research Foundation, priority 2020, published 2023).

Legend:
TRPC3 [1] = target: T1, TRPC3 (Homo sapiens, UniProt Q13507); conditions: literature ref 21; cited from earlier work
T1 sequence (Q13507 1-921): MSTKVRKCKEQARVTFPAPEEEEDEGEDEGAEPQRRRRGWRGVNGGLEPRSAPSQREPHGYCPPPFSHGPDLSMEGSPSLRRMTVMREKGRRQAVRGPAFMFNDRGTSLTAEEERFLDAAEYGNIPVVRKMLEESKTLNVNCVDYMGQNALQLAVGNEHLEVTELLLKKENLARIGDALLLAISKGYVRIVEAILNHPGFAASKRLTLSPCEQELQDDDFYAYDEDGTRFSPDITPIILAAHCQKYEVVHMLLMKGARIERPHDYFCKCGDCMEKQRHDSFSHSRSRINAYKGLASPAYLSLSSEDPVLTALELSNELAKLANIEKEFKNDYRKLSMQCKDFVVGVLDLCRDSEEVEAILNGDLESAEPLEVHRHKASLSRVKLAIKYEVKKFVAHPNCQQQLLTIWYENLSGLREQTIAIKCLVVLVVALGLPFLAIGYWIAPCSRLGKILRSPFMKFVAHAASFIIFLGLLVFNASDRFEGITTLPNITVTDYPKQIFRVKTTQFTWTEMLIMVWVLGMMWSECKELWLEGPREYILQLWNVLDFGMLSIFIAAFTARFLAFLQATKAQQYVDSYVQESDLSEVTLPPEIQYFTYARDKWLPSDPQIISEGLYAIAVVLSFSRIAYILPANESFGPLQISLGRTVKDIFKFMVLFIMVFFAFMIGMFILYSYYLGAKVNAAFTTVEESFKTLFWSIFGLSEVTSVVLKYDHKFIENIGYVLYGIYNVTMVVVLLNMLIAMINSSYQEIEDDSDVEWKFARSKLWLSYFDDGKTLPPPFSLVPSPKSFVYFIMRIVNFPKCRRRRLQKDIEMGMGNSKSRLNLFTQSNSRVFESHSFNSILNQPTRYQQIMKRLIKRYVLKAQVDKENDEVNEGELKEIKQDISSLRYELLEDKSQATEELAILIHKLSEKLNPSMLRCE

TRPC3 [2] = target: T1, TRPC3; assay: whole-cell patch clamp of HEK293 cells transfected with hTRPC3, currents activated by GSK1702934A; type: cell-based; design: expressed in transfected cells; host or cells: HEK293 (CRL-1573), transient transfection, pMO vector; conditions: for inhibition at 10 µM: 10 μM compound in presence of agonist GSK1702934A, HEK293 whole-cell peak current, read-out: hTRPC3 % Inhibition at 10 μM (mean ± SEM)
Experimental: Human embryonic kidney 293 (HEK293; catalog number CRL-1573) cells were cultured in Dulbecco's modified Eagle's medium (Invitrogen) supplemented with 10% fetal bovine serum and 1% penicillin-streptomycin at 37° C. and 5% CO2. Constructs cloned in pMO (a pcDNA3-modified vector) were co-transfected with GFP-pMO, using Lipofectamine 2000 (Invitrogen) according to the manufacturer's instructions. Macroscopic currents in the whole-cell patch clamp configuration were recorded 18-24 h post-transfection. The extracellular solution contained 140 mM NaCl, 6 mM KCl, 2 mM MgCl2, 10 mM HEPES, and 10 mM glucose (pH 7.4). Pipettes were made of borosilicate glass (outer diameter, 1.5 mm; inner diameter, 1.10 mm; Sutter Instruments) and fire-polished with a resistance between 2.8 and 4.0 megaohms when filled with an intracellular solution that contained 140 mM CsCl, 5 mM EGTA, and 10 mM HEPES, pH 7.2. Currents were recorded with a Multiclamp 700B amplifier (Molecular Devices) using a 1-s ramp from −100 to 100 mV. Agonist and antagonists perfused were dissolved in the bath solution prior experiments: TRP channel agonists Allyl isothiocyanate (AITC; TRPA1), capsaicin (TRPV1), and menthol (TRPM8) were obtained from Sigma, GSK1016790A (TRPV4) from Cayman chemicals, and GSK1702934A (TRPC3, TRPC6 and TRPC7) from Tocris Bioscience. Antagonist Pyr3 was obtained from Tocris Bioscience, all other antagonists were synthesized in house. Data were acquired with a sampling rate of 20 kHz, low-pass filtered (10 kHz), and analyzed offline using Clampfit v10.4.2.0 (Molecular Devices).
Electrophysiology results were expressed as means±SD. Data were plotted, and sigmoidal fitting was done using OriginPro (from OriginLab), with the following Boltzmann function:
Using the patch clamp technique in the whole-cell configuration, compounds were screened by challenging hTRPC3 overexpressing HEK293 cells with GSK1702934A to activate TRPC3 and each of the synthesized compounds (10 μM) individually in the presence of the agonist.
To avoid tachyphylaxis and determine the IC50 of compound 22, each point of the dose response curve (FIG. 1B) was done individually on a cell and exchanging coverslips between cells. […] FIGS. 1D-1I show the inhibition of TRPC3-mediated currents by compound 22 and Pyr3 (serving as the reference control). […] Similar results were obtained when OAG was used as the agonist (data not shown).

[3] = maximum tolerated dose / in vivo toxicity study in mice; conditions: mouse, in vivo
Experimental: The in vivo study was performed in compliance with the NIH Animal Use Guidelines and protocol approved by the Institutional Animal Care and Use Committee (IACUC) at the University of Tennessee Health Science Center (UTHSC, Memphis, Tenn.). NSG mice at 8 weeks (n=2) and ICR mice at 12 weeks (n=3) were housed with a 12:12-hour light-dark cycle and fed a breeder chow diet. Daily IP injections of 200 mg/kg of compounds 22 or 79 were administered for five consecutive injections in five mice, respectively, which were followed to monitor the mortality rate. Body weights of the mice were recorded daily.
The metabolic stability of compound 22 was tested prior to the next phase of in vivo study. […] The maximum tolerated dose (MTD) study was subsequently performed to investigate its in vivo toxicity (FIGS. 4A and 4B). The second major limitation of Pyr3 is its toxicity due to its alkylating tail moiety. While replacing only the fast-metabolizing head ester group in Pyr3 with a stable amide (compound 79) improved metabolic stability, a single IP injection of compound 79 at 200 mg/kg killed all mice within 24 h.
Compound 79 is a metabolically stable version of Pyr3. Mice treated daily with compound 22 or compound 79 (n=5) for 5 consecutive days. All the mice were treated with either compound 22 or 79 at 200 mg/kg (IP). […]

inhibition at 10 µM (TRPC3 [2]) [%]	SMILES	also measured
–	O=C(Nc1ccc(-n2ncc(C(=O)O)c2C(F)(F)F)cc1)C(Cl)=C(Cl)Cl [Pyr8]	TRPC3 inhibition (TRPC3 [1]): little TRPC3 inhibition
98.08 ± 0.85	CCNC(=O)c1cnn(-c2ccc(-n3ccc(Cl)c(Cl)c3=O)cc2)c1 [Compound 50, 1-(4-(3,4-dichloro-2-oxopyridin-1(2H)-yl)phenyl)-N-ethyl-1H-pyrazole-4-carboxamide]	IC50 (TRPC3 [2]; agonist GSK1702934A, HEK293 whole-cell patch clamp, read-out: hTRPC3 IC50 (μM, mean ± SEM)): 2.56 ± 0.52 µM
74.8 ± 5.65	O=C(NC1CC1)c1cnn(-c2ccc(-n3ccc(Cl)c(Cl)c3=O)cc2)c1C(F)(F)F [Compound 44, N-cyclopropyl-1-(4-(3,4-dichloro-2-oxopyridin-1(2H)-yl)phenyl)-5-(trifluoromethyl)-1H-pyrazole-4-carboxamide]	–
54 ± 7.25	CCOC(=O)c1cnn(-c2ccc(-n3cc(Cl)ccc3=O)cc2)c1C(F)(F)F [Compound 3, Ethyl 1-(4-(5-chloro-2-oxopyridin-1(2H)-yl)phenyl)-5-(trifluoromethyl)-1H-pyrazole-4-carboxylate]	–
50.5 ± 5.49	CCOC(=O)c1cnn(-c2ccc(-n3cc(Cl)cc(Cl)c3=O)cc2)c1C(F)(F)F [Compound 6, Ethyl 1-(4-(3,5-dichloro-2-oxopyridin-1(2H)-yl)phenyl)-5-(trifluoromethyl)-1H-pyrazole-4-carboxylate]	–
76 ± 6.65	CCNC(=O)c1cnn(-c2ccc(-n3ccc(Cl)c(Br)c3=O)cc2)c1C(F)(F)F [Compound 25, 1-(4-(3-bromo-4-chloro-2-oxopyridin-1(2H)-yl)phenyl)-N-ethyl-5-(trifluoromethyl)-1H-pyrazole-4-carboxamide]	–
72.3 ± 2.88	CCNC(=O)c1cnn(-c2ccc(-n3ccc(Cl)c(Cl)c3=O)cc2)c1Cl [Compound 51, 5-chloro-1-(4-(3,4-dichloro-2-oxopyridin-1(2H)-yl)phenyl)-N-ethyl-1H-pyrazole-4-carboxamide]	–
54.9 ± 4.61	CCNC(=O)c1sc(-c2ccc(-n3ccc(Cl)c(Cl)c3=O)cc2)nc1C(F)(F)F [Compound 65, 2-(4-(3,4-dichloro-2-oxopyridin-1(2H)-yl)phenyl)-N-ethyl-4-(trifluoromethyl)thiazole-5-carboxamide]	–
52.1 ± 8.41	CC(=O)c1cnn(-c2ccc(-n3cc(Cl)c(C)c(Cl)c3=O)cc2)c1C(F)(F)F [Compound 72, 1-(4-(4-acetyl-5-(trifluoromethyl)-1H-pyrazol-1-yl)phenyl)-3,5-dichloro-4-methylpyridin-2(1H)-one]	–
71.5 ± 4.51	CCCNC(=O)c1cnn(-c2ccc(-n3ccc(Cl)c(Cl)c3=O)cc2)c1C(F)(F)F [Compound 39, 1-(4-(3,4-dichloro-2-oxopyridin-1(2H)-yl)phenyl)-N-propyl-5-(trifluoromethyl)-1H-pyrazole-4-carboxamide]	–
72.7 ± 7.96	CS(=O)(=O)c1cnn(-c2ccc(-n3ccc(Cl)c(Cl)c3=O)cc2)c1C(F)(F)F [Compound 73, 3,4-Dichloro-1-(4-(4-(methylsulfonyl)-5-(trifluoromethyl)-1H-pyrazol-1-yl)phenyl)pyridine-2(1H)-one]	–
34 ± 6.52	CCNC(=O)c1cnn(-c2ccc(-n3cc(Br)c(Cl)c(Br)c3=O)cc2)c1C(F)(F)F [Compound 34]	–
51.4 ± 4.35	CCOC(=O)c1cnn(-c2ccc(-n3ccc(Cl)c(Cl)c3=O)cc2)c1C(F)(F)F [Compound 4, Ethyl 1-(4-(3,4-dichloro-2-oxopyridin-1(2H)-yl)phenyl)-5-(trifluoromethyl)-1H-pyrazole-4-carboxylate]	–
23.2 ± 1.23	CCNC(=O)c1cnn(-c2ccc(NC(=O)C(Cl)=C(Cl)Cl)cc2)c1C(F)(F)F [Compound 79, N-ethyl-1-(4-(2,3,3-trichloroacrylamido)phenyl)-5-(trifluoromethyl)-1H-pyrazole-4-carboxamide]	–
–	CCOC(=O)c1cnn(-c2ccc(-n3ccc(Cl)c(Br)c3=O)cc2)c1C(F)(F)F [Compound 8, Ethyl 1-(4-(3-bromo-4-chloro-2-oxopyridin-1(2H)-yl)phenyl)-5-(trifluoromethyl)-1H-pyrazole-4-carboxylate]	survival of treated mice [3]: alive
49.5 ± 3.91	CCOC(=O)c1cnn(-c2ccc(-n3ccccc3=O)cc2)c1C(F)(F)F [Compound 1, Ethyl 1-(4-(2-oxopyridin-1(2H)-yl)phenyl)-5-(trifluoromethyl)-1H-pyrazole-4-carboxylate]	–
51.5 ± 6	CCNC(=O)c1cnn(-c2ccc(-n3cc(Cl)c(Cl)cc3=O)cc2)c1C(F)(F)F [Compound 23]	–
86 ± 2.8	CCC(=O)Nc1cnn(-c2ccc(-n3ccc(Cl)c(Cl)c3=O)cc2)c1C(F)(F)F [Compound 58, N-(1-(4-(3,4-dichloro-2-oxopyridin-1(2H)-yl)phenyl)-5-(trifluoromethyl)-1H-pyrazol-4-yl)propionamide]	–
40.2 ± 3.95	CCCCNC(=O)c1cnn(-c2ccc(-n3ccc(Cl)c(Cl)c3=O)cc2)c1C(F)(F)F [Compound 40, N-butyl-1-(4-(3,4-dichloro-2-oxopyridin-1(2H)-yl)phenyl)-5-(trifluoromethyl)-1H-pyrazole-4-carboxamide]	–
39.1 ± 2.31	CCOC(=O)c1cnn(-c2ccc(-n3cc(Cl)c(Cl)cc3=O)cc2)c1C(F)(F)F [Compound 5, Ethyl 1-(4-(4,5-dichloro-2-oxopyridin-1(2H)-yl)phenyl)-5-(trifluoromethyl)-1H-pyrazole-4-carboxylate]	–
63.4 ± 4.83	CCCC(=O)c1cnn(-c2ccc(-n3ccc(Cl)c(Cl)c3=O)cc2)c1C(F)(F)F [Compound 69, 1-(4-(4-butyryl-5-(trifluoromethyl)-1H-pyrazol-1-yl)phenyl)-3,4-dichloropyridin-2(1H)-one]	–
